Assay results as given in ChEMBL document CHEMBL4316641, “Synthesis and Anti-HIV Profile of a Novel Tetrahydroindazolylbenzamide Derivative Obtained by Oxazolone Chemistry” (ACS Med Chem Lett, 2019).
The source made the active and inactive calls. The rule behind the calls is not given here.

What was measured:
[1] = tested on: Human immunodeficiency virus; experiment: Inhibition of reverse transcriptase in HIV1 NL4.3 infected in human HeLaP4 cells assessed as reduction in formation of reverse transcribed DNA at 50 fold antiviral EC50 incubated up to 60 mins by quantitative PCR analysis; assay type: cell-based
[2] = molecular target: Human immunodeficiency virus type 1 integrase (Human immunodeficiency virus 1) (UniProt Q7ZJM1); experiment: Inhibition of HIV integrase strand transfer activity
Human immunodeficiency virus type 1 integrase (Human immunodeficiency virus 1), sequence (Q7ZJM1 as listed by the source): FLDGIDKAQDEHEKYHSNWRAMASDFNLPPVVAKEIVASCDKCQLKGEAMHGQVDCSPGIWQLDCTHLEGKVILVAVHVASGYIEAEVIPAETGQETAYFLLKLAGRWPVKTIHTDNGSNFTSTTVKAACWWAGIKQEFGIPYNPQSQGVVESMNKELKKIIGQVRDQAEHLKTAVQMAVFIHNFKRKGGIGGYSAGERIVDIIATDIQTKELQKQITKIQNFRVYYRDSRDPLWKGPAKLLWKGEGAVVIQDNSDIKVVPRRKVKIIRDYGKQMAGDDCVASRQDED

[3] = molecular target: Human immunodeficiency virus type 1 integrase (Human immunodeficiency virus 1) (UniProt Q7ZJM1); experiment: Inhibition of integrase in HIV1 NL4.3 infected in human HeLaP4 cells assessed as increase in increase in 2-LTR circles at 50 fold antiviral EC50 incubated up to 60 mins by quantitative PCR analysis; assay type: cell-based
[4] = tested on: Human immunodeficiency virus; experiment: Inhibition of reverse transcriptase in HIV1 NL4.3 infected in human HeLaP4 cells assessed as reduction in integrated provirus formation at 50 fold antiviral EC50 incubated up to 60 mins by quantitative PCR analysis; assay type: cell-based
[5] = Cytotoxicity against human MT4 cells assessed as reduction in cell viability by MTT assay; assay type: cell-based
[6] = Selectivity index, ratio of CC50 for cytotoxicity against human MT4 cells assessed as reduction in cell viability by MTT assay to EC50 for antiviral activity against HIV infected in human MT4 cells assessed as inhibition of virus-induced cytopathogenicity by MTT assay; assay type: toxicity, cell-based; details: read-out: Ratio CC50/EC50
[7] = tested on: Human immunodeficiency virus; experiment: Antiviral activity against HIV infected in human MT4 cells assessed as inhibition of virus-induced cytopathogenicity by MTT assay; assay type: functional, organism-based
[8] = tested on: Human immunodeficiency virus; experiment: Inhibition of reverse transcriptase in HIV1 NL4.3 infected in human HeLaP4 cells assessed as reduction in formation of 2-LTRs at 50 fold antiviral EC50 incubated up to 60 mins by quantitative PCR analysis; assay type: cell-based
[9] = tested on: Human immunodeficiency virus; experiment: Inhibition of reverse transcriptase in HIV1 NL4.3 infected in human HeLaP4 cells assessed as reduction in late reverse transcription by time of addition assay; assay type: cell-based

With `Cc1cn([C@H]2C[C@H](N=[N+]=[N-])[C@@H](CO)O2)c(=O)[nH]c1=O` the inhibition [1] was “Active”.

With `CC(NC(=O)c1ccccc1)c1nn(-c2ccc(C(N)=O)cc2)c2c1C(=O)CC(C)(C)C2` (racemic) the inhibition [2] was “inactive”, the inhibition [3] was “inactive” and the inhibition [1] was “Active”. For the same compound, the inhibition [4] was “Active”, the CC50 [5] was 119 µM and the selectivity ratio [6] was 68. The EC50 ([7]; Human immunodeficiency virus 1, MT4, read-out: EC50) was 2770 nM, the inhibition [8] was “Active” and the inhibition [9] was “Active”.

In the case of `CC(N)c1nn(-c2ccc(C(=O)O)cc2)c2c1C(=O)CC(C)(C)C2.Cl` (racemic), the EC50 [7] is reported as “Not Active”.

In the case of `CC(NC(=O)c1ccccc1)c1nn(-c2ccc(C#N)cc2)c2c1C(=O)CC(C)(C)C2` (racemic), the EC50 [7] is reported as “Not Active”.
